Measured values published in PMC7571175, “N-Benzyl Residues as the P1′ Substituents in Phosphorus-Containing Extended Transition State Analog Inhibitors of Metalloaminopeptidases” (Molecules, 2020).
pKi: −log10 of the molar value. Read-outs that look alike come from different tables or passages of the source.

Tests used:
[1] = molecular target: T1, leucine aminopeptidase from porcine kidney (SsLAP) (Sus scrofa, UniProt P28839); design: method as in doi:10.1016/j.tetlet.2011.04.037; conditions: porcine kidney LAP; reference compound, reported previously; cited from earlier work
T1 construct: Leucine aminopeptidase from porcine kidney (SsLAP) [26] and barley seeds (HvLAP) [21] were isolated and purified; from tissue; host or cells: porcine kidney
T1 sequence (P28839 1-519): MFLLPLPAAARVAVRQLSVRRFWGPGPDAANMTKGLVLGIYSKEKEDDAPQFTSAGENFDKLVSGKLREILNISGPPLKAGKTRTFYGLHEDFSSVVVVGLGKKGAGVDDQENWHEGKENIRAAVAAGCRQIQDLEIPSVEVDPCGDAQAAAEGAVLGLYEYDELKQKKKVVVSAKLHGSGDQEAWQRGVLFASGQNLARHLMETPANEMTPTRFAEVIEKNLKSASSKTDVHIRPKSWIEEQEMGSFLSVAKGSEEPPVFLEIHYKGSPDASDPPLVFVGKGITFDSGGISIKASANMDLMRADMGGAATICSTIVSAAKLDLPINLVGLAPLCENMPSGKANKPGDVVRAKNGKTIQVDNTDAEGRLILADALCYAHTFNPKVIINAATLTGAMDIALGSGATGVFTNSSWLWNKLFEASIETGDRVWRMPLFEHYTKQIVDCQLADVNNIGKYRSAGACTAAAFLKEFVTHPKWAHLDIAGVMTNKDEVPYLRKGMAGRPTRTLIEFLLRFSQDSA

[2] = molecular target: T2, microsomal alanyl aminopeptidase from porcine kidney (SsAPN) (Sus scrofa, UniProt P15145); design: method as in doi:10.1016/j.tetlet.2011.04.037; conditions: porcine APN; reference compound, reported previously; cited from earlier work
T2 construct: Microsomal alanyl aminopeptidase from porcine kidney (SsAPN) was purchased from Sigma-Aldrich; purchased Sigma-Aldrich (Poznań, Poland); host or cells: porcine kidney
T2 sequence (P15145 1-963): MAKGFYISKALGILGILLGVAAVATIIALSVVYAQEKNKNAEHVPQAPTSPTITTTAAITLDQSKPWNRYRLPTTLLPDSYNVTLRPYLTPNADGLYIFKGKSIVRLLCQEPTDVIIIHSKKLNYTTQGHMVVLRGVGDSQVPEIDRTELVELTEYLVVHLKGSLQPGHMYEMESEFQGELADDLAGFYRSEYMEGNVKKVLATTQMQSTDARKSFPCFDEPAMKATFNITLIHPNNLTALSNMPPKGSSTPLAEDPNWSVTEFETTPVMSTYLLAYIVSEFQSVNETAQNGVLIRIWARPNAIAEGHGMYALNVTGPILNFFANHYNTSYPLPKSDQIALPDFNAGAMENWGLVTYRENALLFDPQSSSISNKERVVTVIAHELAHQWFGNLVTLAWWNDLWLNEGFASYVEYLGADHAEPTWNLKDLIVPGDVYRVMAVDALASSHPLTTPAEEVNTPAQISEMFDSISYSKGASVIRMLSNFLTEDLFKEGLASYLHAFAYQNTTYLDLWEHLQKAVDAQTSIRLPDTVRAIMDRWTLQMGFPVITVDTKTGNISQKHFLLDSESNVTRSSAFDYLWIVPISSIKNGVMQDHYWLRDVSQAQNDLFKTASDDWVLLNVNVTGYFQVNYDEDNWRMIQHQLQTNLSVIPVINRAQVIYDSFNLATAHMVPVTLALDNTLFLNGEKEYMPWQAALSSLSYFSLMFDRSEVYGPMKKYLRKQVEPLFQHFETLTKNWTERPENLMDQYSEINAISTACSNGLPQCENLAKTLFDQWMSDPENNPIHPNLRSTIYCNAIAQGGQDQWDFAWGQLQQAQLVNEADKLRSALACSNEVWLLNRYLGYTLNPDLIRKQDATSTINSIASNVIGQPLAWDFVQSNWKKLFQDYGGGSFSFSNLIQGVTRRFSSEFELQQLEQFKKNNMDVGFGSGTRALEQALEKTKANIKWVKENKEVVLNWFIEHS

[3] = molecular target: thermolysin; conditions: competitive tight-binding inhibitor; cited from earlier work
[4] = molecular target: T2, microsomal alanyl aminopeptidase from porcine kidney (SsAPN); test: Inhibition of porcine kidney alanyl aminopeptidase (enzyme kinetics); assay type: biochemical; conditions: porcine APN; compounds assayed as racemic mixtures
Source text: (§1) Chemical and biochemical materials were purchased from Sigma-Aldrich (Poznań, Poland) and Avantor Performance Materials (Gliwice, Poland), and were used without further purification. Fluorogenic substrate Ala-AMC (L-alanine-4-methylcoumaryl-7-amide) was purchased from PeptaNova (Sandhausen, Germany). Microsomal alanyl aminopeptidase from porcine kidney (SsAPN) was purchased from Sigma-Aldrich (Poznań, Poland), and recombinant human alanine aminopeptidase (HsAPN) from R&D System (Minneapolis, MN, USA). Leucine aminopeptidase from porcine kidney (SsLAP) and barley seeds (HvLAP) were isolated and purified according to the procedures described previously. ^1H, ^13C, and ^31P NMR spectra were recorded on a 400YH (JEOL, Tokyo, Japan) spectrometer at 295 K. Mass spectra analyses were performed on a spectrometer LC-MS QDa (Waters e2695, 2489 UV/Vis Detector, Acquity QDa detector). HRMS spectra were registered using a Waters LCT Premier XE mass spectrometer (electrospray ionization, ESI) (Waters, Milford, MA, USA). The progress of the enzymatic reactions was monitored spectrophotometrically (UV-VIS Spectrophotometer, JASCO V-730) by following the change in absorbance at 405 nm (formation of p-nitroaniline), or by measuring fluorescence with a spectrofluorometer SpectraMax Gemini EM (Molecular Devices, San Jose, CA, USA) operating at two wavelengths: excitation 355 nm and emission 460 nm (for AMC).
(§2) The current studies followed the methodologies of the enzyme kinetic experiments, with calculation of the inhibition constants, and the mechanism of inhibition, which are presented in detail in our previous papers: For microsomal alanyl aminopeptidase from porcine kidney, recombinant human alanine aminopeptidase, leucine aminopeptidase from porcine kidney, and leucine aminopeptidase from barley seeds ([…]).

[5] = molecular target: T1, leucine aminopeptidase from porcine kidney (SsLAP); test: Inhibition of porcine kidney leucine aminopeptidase (enzyme kinetics); assay type: biochemical; conditions: porcine kidney LAP; compounds assayed as racemic mixtures
Source text: as §1, §2

[6] = molecular target: T3, recombinant human alanine aminopeptidase (HsAPN) (Homo sapiens, UniProt P15144); test: Inhibition of recombinant human alanine aminopeptidase (enzyme kinetics); assay type: biochemical; conditions: for pKi: human APN; for Activity for human APN (in words): summary statement
T3 construct: purchased R&D System (Minneapolis, MN, USA)
Source text: as §1, §2

[7] = compounds assayed as racemic mixtures, read-out: Ki HsAPN

T3 sequence (P15144 whole entry): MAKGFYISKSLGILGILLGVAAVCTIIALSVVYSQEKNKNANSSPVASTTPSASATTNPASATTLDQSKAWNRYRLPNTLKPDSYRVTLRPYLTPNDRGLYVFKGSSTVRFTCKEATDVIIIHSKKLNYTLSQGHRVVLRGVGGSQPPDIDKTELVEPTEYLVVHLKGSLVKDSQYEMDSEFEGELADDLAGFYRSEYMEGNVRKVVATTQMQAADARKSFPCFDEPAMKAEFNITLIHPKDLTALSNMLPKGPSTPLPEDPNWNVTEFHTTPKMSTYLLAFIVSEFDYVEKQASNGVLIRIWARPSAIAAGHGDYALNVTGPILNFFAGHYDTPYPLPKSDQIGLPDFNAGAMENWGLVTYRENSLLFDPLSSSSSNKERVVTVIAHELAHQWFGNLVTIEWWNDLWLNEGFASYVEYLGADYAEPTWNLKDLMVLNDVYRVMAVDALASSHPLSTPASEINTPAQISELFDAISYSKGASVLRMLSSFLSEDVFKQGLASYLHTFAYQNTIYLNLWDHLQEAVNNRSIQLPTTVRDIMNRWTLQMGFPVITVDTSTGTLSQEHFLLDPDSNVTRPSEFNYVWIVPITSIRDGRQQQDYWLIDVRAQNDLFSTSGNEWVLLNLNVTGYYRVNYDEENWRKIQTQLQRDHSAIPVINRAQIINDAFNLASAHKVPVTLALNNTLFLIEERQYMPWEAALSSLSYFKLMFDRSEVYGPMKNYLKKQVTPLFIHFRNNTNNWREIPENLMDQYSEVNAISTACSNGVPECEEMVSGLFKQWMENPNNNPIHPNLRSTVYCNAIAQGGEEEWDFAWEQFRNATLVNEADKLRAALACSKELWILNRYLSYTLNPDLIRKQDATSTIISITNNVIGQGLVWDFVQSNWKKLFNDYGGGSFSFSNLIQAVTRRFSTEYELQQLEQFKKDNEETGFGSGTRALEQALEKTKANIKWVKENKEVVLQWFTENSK

SMILES	pKi [1]	pKi [2]	Ki thermolysin (in words) [3]	pKi [4]	pKi [5]	pKi [6, 7]	Activity for human APN (in words) [6]	pKi ([6]; value of the abstract, read-out: Ki human alanyl aminopeptidase)
NC(CCc1ccccc1)P(=O)(O)CN(CC(=O)O)Cc1ccccc1 (stereo not drawn) [compound 1]	4.28	5.52						
CC(C)CC(NP(=O)(O)C(Cc1ccccc1)NC(=O)OCc1ccccc1)C(=O)NC(C)C(=O)O (stereo not drawn) [Cbz-PheP[NH]Leu-Ala-OH]			picomolar range					
NC(CCc1ccccc1)P(=O)(O)CNCC(=O)O (stereo not drawn) [6g, N-{[1-Amino-3-phenylpropyl(hydroxy)phosphoryl]methyl}aminoacetic acid]				4.20	4.54			
NC(CCc1ccccc1)P(=O)(O)CN(CC(=O)O)Cc1ccc([N+](=O)[O-])cc1 (stereo not drawn) [6d, N-{[1-Amino-3-phenylpropyl(hydroxy)phosphoryl]methyl}-N-4-nitrobenzylaminoacetic acid]				4.77	4.28	6.62	potent submicromolar activity	
NC(CCc1ccccc1)P(=O)(O)CN(CC(=O)O)Cc1ccc(C(=O)O)cc1 (stereo not drawn) [6c, N-{[1-Amino-3-phenylpropyl(hydroxy)phosphoryl]methyl}-N-4-carboxybenzylaminoacetic acid]				4.47	4.57	5.85		
NC(CCc1ccccc1)P(=O)(O)CN(CC(=O)O)Cc1ccc(Br)cc1 (stereo not drawn) [6b, N-{[1-Amino-3-phenylpropyl(hydroxy)phosphoryl]methyl}-N-4-bromobenzylaminoacetic acid]				5.24	3.77	6.89	potent submicromolar activity	
NC(CCc1ccccc1)P(=O)(O)CN(CC(=O)O)Cc1ccc(Cl)cc1Cl (stereo not drawn) [6a, N-{[1-Amino-3-phenylpropyl(hydroxy)phosphoryl]methyl}-N-2,4-dichlorobenzylaminoacetic acid]				5.11	3.97	7.00	potent submicromolar activity	6.99
